# From patent US20220062299A1, “USE OF GLUCOCORTICOID STEROIDS IN PREVENTING AND TREATING CONDITIONS OF MUSCLE WASTING, AGING AND METABOLIC DISORDER” (NORTHWESTERN UNIVERSITY, priority 2018, published 2022)
# Tested on: Dysf-null mice
# Assay: Dosing of metabolic and endocrine biomarkers in blood, serum and tissues, Dysf-null mice, 32 weeks weekly prednisone
# Assay type: in vivo
# Procedure: Animal handling and steroid regimens. Mice were housed in a pathogen-free dedicated vivarium in accordance with Institutional Animal Care and Use Committee (IACUC) guidelines. Euthanasia was performed through carbon dioxide inhalation followed by cervical dislocation and heart removal. All methods using living animals in this study were performed in ethical accordance with the American Veterinary Medical Association (AVMA) and under protocols fully approved by both the Institutional Animal Care and Use Committee (IACUC) at Northwestern University Feinberg School of Medicine (protocol number ISO00000761). Consistent with the ethical approvals, all efforts were made to minimize suffering. Mice were fed ad libitum with Mouse Breeder Sterilizable Diet (#7904; Harlan Teklad, Indianapolis, Ind.) and maintained on a 12-hour light/dark cycle. mdx mice from the DBA/2J background were obtained from the Jackson Laboratory (Bar Harbor, Me.; stock #013141) and interbred. Male mice were used for reported experiments. Age at start was approximately 6 months for short-term experiments, approximately 6 weeks for long-term experiments. Dysferlin-null (Dysf-null) mice from the 129T2/SvEmsJ background were previously characterized (Demonbreun et al., 2011; Demonbreun et al., 2014). Age at start was approximately 9 months for long-term experiments. For experiments with Dysf-null and wildtype mice, both females and males (approximately 1:1 ratio) were randomized in treatment groups. […] Dosing was based on weekly weight measurements (1 mg/kg body weight, (Sali et al., 2012)) in 100 μl total PBS volume per dose. […] On injection days, stock solutions stored at −20° C. were diluted into sterile Eppendorf tubes containing sterile phosphate buffered saline (PBS) (#14190; Thermo Fisher, Waltham, Mass.). Puromycin (cat #A1113803, Thermo Scientific, Waltham, Mass.) was administered i.p. as 0.040 μmol/body g, and tissues were snap-frozen 30 minutes after injection. Sterile BD Micro-Fine IV Insulin Syringes (#14-829-1A; Fisher Scientific, Waltham, Mass.) were used to inject the intraperitoneal cavity of non-sedated animals. All animal analyses both during treatment and at endpoint were conducted blinded to treatment groups.
# Dosing of metabolic and endocrine biomarkers. Glycogen was quantitated using the Glycogen Assay Kit (#ab65620; Abcam, Cambridge, Mass.) from approximately 25 mg frozen-pulverized whole tissue, following manufacturer's instructions and internal standards for calculating μg/mg values. For measurement of whole-tissue ATP/NAD^+ levels, approximately 25 mg frozen-pulverized tissue was extracted in 10% perchloric acid and neutralized in 0.75 M K2CO3, as previously described (Ramsey et al., 2009). NAD+ and ATP were measured by high-pressure liquid chromatography (HPLC) with Shimadzu LC-20A pump (Shimadzu Scientific Instr Inc, Addison, Ill.) and UV-VIS detector, using a Supelco LC-18-T column (15 cm×[…]; #58970-U; Millipore-Sigma, St Louis, Mo.). […] Corticosterone was measured in mouse serum and cortisol was measured in human serum using dedicated ELISA kits (#ADI-900-097, Enzo Life Science, Farmingdale, N.Y.; #K7430-100, BioVision, Milpitas, Calif.) according to manufacturer's instructions and internal standards to calculate ng/ml values. Insulin levels were quantitated in mouse and human serum with species-specific ELISA kits (#10-1247-01 (mouse-specific); #10-1113-01 (human-specific); Mercodia, Uppsala, Sweden), following manufacturer's instructions and internal standards to calculate ng/ml values. Free fatty acids were quantitated using Enzychrom Free Fatty Acid Assay kit (#EFFA-100; BioAssay Systems, Hayward, Calif.), following kit's instructions and standards to calculate μM (serum) and nmol/mg (tissue) values.
# [1] = weekly prednisone, mean ± s.e.m
smiles,measurement,setting,value
"C[C@]12C=CC(=O)C=C1CC[C@@H]1[C@@H]2C(=O)C[C@@]2(C)[C@H]1CC[C@]2(O)C(=O)CO [prednisone, Prednisone]",BCAA utilization in muscle,weekly prednisone,improved
same,"endpoint levels of ATP, NAD+, and glycogen in muscle and heart",weekly prednisone,increased
same,fasting glycemia,"weekly prednisone 1 mg/kg i.p., mean ± s.e.m",109 ± 3.17 mg/dL
same,resting lactate,[1],3.36 ± 0.21 mM
same,serum BCAA,[1],419 ± 9.95 µM
same,serum corticosterone,[1],143 ± 5.2 ng/mL
same,serum creatine kinase,[1],1.31 ± 0.04 U/ml
same,serum free fatty acids,[1],475 ± 9.18 µM
same,serum β-hydroxybutyrate,[1],323 ± 9.61 µM
same,"tissue BCAA, diaphragm",[1],45.4 ± 1.06 nmol/mg
same,"tissue BCAA, heart",[1],0.91 ± 0.03 nmol/mg
same,"tissue BCAA, omental fat",[1],24.5 ± 0.8 nmol/mg
same,"tissue BCAA, quadriceps",[1],90.9 ± 2.58 nmol/mg
same,"tissue free fatty acids, diaphragm",[1],0.753 ± 0.07 nmol/mg
same,"tissue free fatty acids, heart",[1],0.438 ± 0.05 nmol/mg
same,"tissue free fatty acids, omental fat",[1],3.49 ± 0.38 nmol/mg
same,"tissue free fatty acids, quadriceps",[1],1.05 ± 0.06 nmol/mg
same,"tissue β-hydroxybutyrate, diaphragm",[1],26.5 ± 2.11 nmol/mg
same,"tissue β-hydroxybutyrate, heart",[1],11.9 ± 0.51 nmol/mg
same,"tissue β-hydroxybutyrate, omental fat",[1],30.2 ± 0.85 nmol/mg
same,"tissue β-hydroxybutyrate, quadriceps",[1],43.8 ± 2.23 nmol/mg
